Assay results from ChEMBL document CHEMBL4402607, “Molecular Basis for Omapatrilat and Sampatrilat Binding to Neprilysin-Implications for Dual Inhibitor Design with Angiotensin-Converting Enzyme” (J Med Chem, 2020).

Tests used:
[1] = target: Angiotensin-converting enzyme (Homo sapiens) (UniProt P12821); experiment: Selectivity index, ratio of Ki for human wild type ACE N-domain to Ki for human testis ACE C-domain (unknown origin) using Abz-FRK(Dnp)P-OH as substrate by fluorescence based analysis
[2] = target: Angiotensin-converting enzyme (Homo sapiens) (UniProt P12821); experiment: Selectivity index, ratio of Ki for human ACE N-domain soluble form (1 to 629 residues) expressed in CHO cells to Ki for human testis ACE C-domain lacking unique O-glycosylated region, transmembrane anchor and cytoplasmic tail expressed in CHO cells; assay type: cell-based
[3] = target: Angiotensin-converting enzyme (Homo sapiens) (UniProt P12821); experiment: Selectivity index, ratio of Ki for human somatic ACE N-terminal domain to human somatic ACE C-terminal domain using MCA-RPPGFSAFK-Dnp-OH as substrate by fluorescence based analysis

Sequence of Angiotensin-converting enzyme (Homo sapiens) (P12821 whole entry, the tested form may be a part): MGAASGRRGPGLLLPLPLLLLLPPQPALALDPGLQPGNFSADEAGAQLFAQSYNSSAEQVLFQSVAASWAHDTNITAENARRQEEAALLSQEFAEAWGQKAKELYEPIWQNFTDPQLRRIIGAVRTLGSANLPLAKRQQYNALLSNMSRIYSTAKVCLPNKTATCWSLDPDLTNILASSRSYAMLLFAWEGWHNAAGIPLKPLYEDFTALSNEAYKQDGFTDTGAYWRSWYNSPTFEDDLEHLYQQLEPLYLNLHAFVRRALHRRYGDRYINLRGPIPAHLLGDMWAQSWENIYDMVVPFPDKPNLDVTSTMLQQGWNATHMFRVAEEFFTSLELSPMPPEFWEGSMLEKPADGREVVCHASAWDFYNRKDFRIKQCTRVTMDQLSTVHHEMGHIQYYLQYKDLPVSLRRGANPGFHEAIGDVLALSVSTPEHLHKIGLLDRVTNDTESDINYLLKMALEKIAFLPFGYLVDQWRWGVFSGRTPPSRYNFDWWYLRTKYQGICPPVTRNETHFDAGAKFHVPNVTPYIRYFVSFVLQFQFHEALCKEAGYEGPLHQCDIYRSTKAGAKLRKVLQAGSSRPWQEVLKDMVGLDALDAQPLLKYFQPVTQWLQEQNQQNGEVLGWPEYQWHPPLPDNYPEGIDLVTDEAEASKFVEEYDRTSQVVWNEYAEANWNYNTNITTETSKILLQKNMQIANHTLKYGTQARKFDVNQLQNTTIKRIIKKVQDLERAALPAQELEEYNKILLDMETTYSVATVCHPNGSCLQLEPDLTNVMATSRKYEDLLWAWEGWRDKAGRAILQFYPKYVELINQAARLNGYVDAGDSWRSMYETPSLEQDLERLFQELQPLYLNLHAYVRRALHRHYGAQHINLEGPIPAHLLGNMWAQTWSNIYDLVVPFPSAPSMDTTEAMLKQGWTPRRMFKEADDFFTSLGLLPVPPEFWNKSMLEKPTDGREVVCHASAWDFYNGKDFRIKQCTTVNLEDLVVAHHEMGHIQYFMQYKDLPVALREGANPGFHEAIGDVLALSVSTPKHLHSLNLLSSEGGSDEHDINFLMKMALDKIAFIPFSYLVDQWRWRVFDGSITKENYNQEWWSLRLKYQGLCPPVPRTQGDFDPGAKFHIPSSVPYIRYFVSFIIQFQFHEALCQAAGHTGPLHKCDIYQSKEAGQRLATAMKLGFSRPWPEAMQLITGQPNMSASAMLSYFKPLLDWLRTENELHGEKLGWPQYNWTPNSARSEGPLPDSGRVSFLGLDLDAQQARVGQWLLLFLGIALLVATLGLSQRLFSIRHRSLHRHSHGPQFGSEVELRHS

SMILES	Ratio Ki [1]	other results
NCCCC[C@H](N[C@@H](CCc1ccccc1)C(=O)O)C(=O)N1CCC[C@H]1C(=O)O	4	
CS(=O)(=O)N[C@@H](CCCCN)C(=O)NC[C@H](CC1(C(=O)N[C@@H](Cc2ccc(O)cc2)C(=O)O)CCCC1)C(=O)O		Ratio Ki [2]: 12.5
NCCCC[C@H](N[C@@H](CCc1ccccc1)C(=O)O)C(=O)N[C@H](Cc1c[nH]c2ccccc12)C(=O)O	243	
O=C(N[C@@H](Cc1ccccc1)P(=O)(O)[C@@H]1CCC[C@H]1C(=O)N[C@@H](Cc1c[nH]c2ccccc12)C(=O)O)OCc1ccccc1		Ratio Ki [3]: 3000
